Columns and labels:
[1] = target: EGFR L858R/T790M (Homo sapiens (Human), UniProt P00533, L858R/T790M); assay: TR-FRET assay for ERBB kinases; format: biochemical; settings: geometric mean if measured more than once
Protocol: (§1) TR-FRET Assay for ERBB Kinases
(§2) All compounds and PROTACs were serially diluted in three-fold increments using 100% DMSO, followed by an intermediate 10-fold dilution using Buffer A (50 mM HEPES, pH 7.5, 50 mM NaCl, 10 mM MgCl2, 1 mM DTT, and 0.1% Pluronic F-68). […] Next, 10 uL of protein kinase in Buffer A was added to each well of the assay plate and pre-incubated with compound for 10 minutes. Kinase reactions were then initiated by addition of 5 uL substrate mix containing 3 mM ATP and 30 uM fluorescein-labeled Poly-GluTyr (Thermo Fisher, #PV3610) in Buffer A and allowed to proceed for 10 minutes at room temperature. Reactions were quenched by addition of a 5 uL mixture containing 5 nM LanthaScreen® Tb-pY20 Antibody (Thermo Fisher, #PV3552) and 40 mM EDTA in Buffer A. Assay plates were then read using a Synergy2 (Biotek Instruments, Winooski, Vt.) via excitation thru a 340/20 nm bandpass filter and emission collected thru 490/10 nm (donor) and 520/25 nm (acceptor) bandpass filters.

[2] = target: EGFR L858R/T790M/C797S (Homo sapiens (Human), UniProt P00533, C797S/L858R/T790M); assay: TR-FRET assay for ERBB kinases; format: biochemical; settings: geometric mean if measured more than once
Protocol: as §1, §2

[3] = target: EGFR WT (Homo sapiens (Human), UniProt P00533); assay: TR-FRET assay for ERBB kinases; format: biochemical; settings: geometric mean if measured more than once
Protocol: as §1, §2

[4] = target: EGFR Exon20NPG (Homo sapiens (Human), UniProt P00533, INS770NPG); assay: TR-FRET assay for ERBB kinases; format: biochemical; settings: geometric mean if measured more than once
Protocol: as §1
All compounds and PROTACs were serially diluted in three-fold increments using 100% DMSO, followed by an intermediate 10-fold dilution using Buffer A (50 mM HEPES, pH 7.5, 50 mM NaCl, 10 mM MgCl2, 1 mM DTT, and 0.1% Pluronic F-68). Two microliters of serially diluted compound or PROTAC were then transferred to black 384-well Proxiplates (PerkinElmer, #6008260) using an Integra Viaflo96. Next, 10 uL of protein kinase in Buffer A was added to each well of the assay plate and pre-incubated with compound for 10 minutes. Kinase reactions were then initiated by addition of 5 uL substrate mix containing 3 mM ATP and 30 uM fluorescein-labeled Poly-GluTyr (Thermo Fisher, #PV3610) in Buffer A and allowed to proceed for 10 minutes at room temperature. Reactions were quenched by addition of a 5 uL mixture containing 5 nM LanthaScreen® Tb-pY20 Antibody (Thermo Fisher, #PV3552) and 40 mM EDTA in Buffer A. Assay plates were then read using a Synergy2 (Biotek Instruments, Winooski, Vt.) via excitation thru a 340/20 nm bandpass filter and emission collected thru 490/10 nm (donor) and 520/25 nm (acceptor) bandpass filters.

[5] = target: EGFR L858R/T790M double mutant (H1975) (Homo sapiens (Human), UniProt P00533, L858R/T790M); assay: EGFR protein degradation assay (Western blot); format: cell-based; settings: 72 hours, 300 nM to 10 nM
Protocol: EGFR Protein Degradation assay
Cells expressing the appropriate form of EGFR were seeded in 6-well plates (300,000 cells per well) and allowed to adhere to the plate overnight. […] To harvest cells, media was removed and cells were washed once with ice-cold phosphate-buffered saline (PBS) prior to the addition of 400 μl lysis buffer (Cell Signaling Technology) supplemented with a protease inhibitor cocktail (Thermo Scientific). Cells were scraped from the plate and the cell lysate transferred to an Eppendorf tube and then clarified by a single spin at 10 000 rpm for 10 minutes. The protein concentration of each lysate was determined (BCA kit, Thermo Scientific) prior to the addition of loading buffer (Invitrogen) and reducing agent (Invitrogen). 10 μg protein of each lysate was loaded on an SDS/PAGE gel and run at 165V for 2 hours. Following transfer to a PVDF membrane (iBlot2, Thermo Fisher Scientific), the membrane was blocked in Tris-buffered saline containing 0.1% Tween-20 (TBS-T) and supplemented with 5% powdered milk for 1 hour. Membranes were then probed with EGFR and tubulin (loaded control) primary antibodies in TBS-T containing 3% bovine serum albumin (BSA) overnight at 4° C. Membranes were washed thrice with TBS-T before incubation with secondary antibody in TBS-T containing 3% bovine serum albumin (BSA) and incubated for 1 hour at room temperature. Following 3 further washes with TBS, membrane proteins of interest were detected by enzyme-linked chemiluminescence (ECL) using a Chemidoc (Bio-Rad).

Sequence of EGFR L858R/T790M (P00533 25-1210 T790M/L858R): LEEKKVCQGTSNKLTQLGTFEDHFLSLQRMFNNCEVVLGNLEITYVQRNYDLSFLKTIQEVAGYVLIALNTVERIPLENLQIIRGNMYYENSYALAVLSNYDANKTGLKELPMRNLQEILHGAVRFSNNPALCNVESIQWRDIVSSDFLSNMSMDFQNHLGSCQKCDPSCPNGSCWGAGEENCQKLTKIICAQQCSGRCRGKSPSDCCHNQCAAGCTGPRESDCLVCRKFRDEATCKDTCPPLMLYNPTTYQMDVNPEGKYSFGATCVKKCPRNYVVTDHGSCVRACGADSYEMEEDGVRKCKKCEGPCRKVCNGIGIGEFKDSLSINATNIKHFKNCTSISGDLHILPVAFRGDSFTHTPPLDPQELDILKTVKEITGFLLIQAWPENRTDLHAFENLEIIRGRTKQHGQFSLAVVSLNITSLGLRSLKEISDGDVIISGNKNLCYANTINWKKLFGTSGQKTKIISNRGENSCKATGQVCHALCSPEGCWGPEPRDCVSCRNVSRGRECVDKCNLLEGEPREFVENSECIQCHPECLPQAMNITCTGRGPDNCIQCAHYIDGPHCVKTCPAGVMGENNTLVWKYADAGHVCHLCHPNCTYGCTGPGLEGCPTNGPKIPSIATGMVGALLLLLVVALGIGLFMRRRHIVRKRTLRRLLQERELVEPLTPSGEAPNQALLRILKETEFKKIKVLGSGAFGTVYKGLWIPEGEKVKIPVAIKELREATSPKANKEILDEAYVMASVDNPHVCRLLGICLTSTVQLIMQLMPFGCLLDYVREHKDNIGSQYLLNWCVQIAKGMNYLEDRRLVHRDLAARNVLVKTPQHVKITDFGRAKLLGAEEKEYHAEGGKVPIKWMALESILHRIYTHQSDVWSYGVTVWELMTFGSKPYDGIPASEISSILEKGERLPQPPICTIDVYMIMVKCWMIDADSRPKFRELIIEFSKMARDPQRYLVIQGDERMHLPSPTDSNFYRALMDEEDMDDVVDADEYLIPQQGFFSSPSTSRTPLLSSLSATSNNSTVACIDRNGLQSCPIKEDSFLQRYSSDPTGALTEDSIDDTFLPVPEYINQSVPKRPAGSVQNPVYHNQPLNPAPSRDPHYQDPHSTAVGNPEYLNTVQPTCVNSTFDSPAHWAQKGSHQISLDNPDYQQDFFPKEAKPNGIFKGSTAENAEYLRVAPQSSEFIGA
Sequence of EGFR L858R/T790M double mutant (H1975) (P00533 25-1210 T790M/L858R): as above
Sequence of EGFR WT (P00533 25-1210): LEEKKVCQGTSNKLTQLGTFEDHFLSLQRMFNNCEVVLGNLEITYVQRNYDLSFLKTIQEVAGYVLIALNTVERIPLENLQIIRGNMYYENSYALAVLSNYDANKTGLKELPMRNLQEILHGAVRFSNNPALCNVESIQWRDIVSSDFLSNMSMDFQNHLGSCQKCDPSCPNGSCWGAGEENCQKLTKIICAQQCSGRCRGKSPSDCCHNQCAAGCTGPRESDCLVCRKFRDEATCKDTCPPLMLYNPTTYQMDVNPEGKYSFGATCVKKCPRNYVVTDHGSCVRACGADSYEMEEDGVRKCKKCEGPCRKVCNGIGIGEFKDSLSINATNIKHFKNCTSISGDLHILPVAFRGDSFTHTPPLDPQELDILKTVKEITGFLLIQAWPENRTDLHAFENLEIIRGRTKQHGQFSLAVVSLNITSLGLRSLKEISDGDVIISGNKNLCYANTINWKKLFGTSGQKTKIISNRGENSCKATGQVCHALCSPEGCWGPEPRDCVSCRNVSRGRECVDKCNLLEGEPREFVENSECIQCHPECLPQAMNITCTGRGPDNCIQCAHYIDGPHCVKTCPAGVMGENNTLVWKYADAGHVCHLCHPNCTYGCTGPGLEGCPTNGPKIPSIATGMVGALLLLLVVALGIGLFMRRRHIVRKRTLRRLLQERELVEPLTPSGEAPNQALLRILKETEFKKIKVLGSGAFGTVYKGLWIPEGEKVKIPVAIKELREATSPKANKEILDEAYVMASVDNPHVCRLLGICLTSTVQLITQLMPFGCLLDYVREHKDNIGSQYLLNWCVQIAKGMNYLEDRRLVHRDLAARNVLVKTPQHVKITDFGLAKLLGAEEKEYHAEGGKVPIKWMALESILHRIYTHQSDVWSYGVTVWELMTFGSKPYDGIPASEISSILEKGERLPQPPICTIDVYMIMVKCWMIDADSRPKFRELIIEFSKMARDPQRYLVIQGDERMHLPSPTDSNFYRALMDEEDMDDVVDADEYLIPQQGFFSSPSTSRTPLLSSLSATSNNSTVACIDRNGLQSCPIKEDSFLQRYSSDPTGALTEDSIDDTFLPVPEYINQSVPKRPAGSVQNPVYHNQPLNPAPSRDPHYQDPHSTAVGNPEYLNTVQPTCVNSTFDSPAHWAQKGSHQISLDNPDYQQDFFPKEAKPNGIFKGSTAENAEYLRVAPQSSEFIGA
Sequence of EGFR Exon20NPG (P00533 other isoform, or with tags, fused parts or gaps del 1-694/ins NPG behind 770 limits assumed): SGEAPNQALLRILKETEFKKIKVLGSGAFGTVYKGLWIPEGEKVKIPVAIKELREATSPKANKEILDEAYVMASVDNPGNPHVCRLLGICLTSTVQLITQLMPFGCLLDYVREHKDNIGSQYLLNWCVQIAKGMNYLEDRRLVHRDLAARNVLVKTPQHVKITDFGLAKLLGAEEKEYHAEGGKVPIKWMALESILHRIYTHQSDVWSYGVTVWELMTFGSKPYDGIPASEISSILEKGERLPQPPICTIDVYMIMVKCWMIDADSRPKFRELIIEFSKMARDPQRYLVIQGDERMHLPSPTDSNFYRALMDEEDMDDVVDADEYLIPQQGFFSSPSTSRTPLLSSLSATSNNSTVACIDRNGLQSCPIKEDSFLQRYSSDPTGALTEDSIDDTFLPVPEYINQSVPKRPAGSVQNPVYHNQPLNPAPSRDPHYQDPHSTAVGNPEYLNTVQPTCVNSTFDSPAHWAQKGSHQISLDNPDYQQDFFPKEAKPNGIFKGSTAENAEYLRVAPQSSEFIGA

| SMILES | IC50 [1] | IC50 [2] | IC50 [3] | IC50 [4] | EGFR protein remaining, EGFR L858R/T790M double mutant [5] |
| --- | --- | --- | --- | --- | --- |
| O=C1CCC(N2C(=O)c3ccc(OCCN4CCN(CCCC#Cc5cccc6c5C(=O)N(C(C(=O)Nc5nccs5)c5cc(F)ccc5O)C6)CC4)cc3C2=O)C(=O)N1 (stereo not drawn) [compound 94] | 6 µM | 1.8 µM | 2.1 µM | 1.5 µM | C (>80% EGFR protein remaining after 72 hours of incubation with the test compound at a concentration of 300 nM) |
| COC1CCN(c2nccc(Nc3cc4c(cn3)nc(-c3ccc(CN5CCN(CCOc6ccc7c(c6)C(=O)N(C6CCC(=O)NC6=O)C7=O)CC5)cc3)n4C(C)C)n2)CC1 (stereo not drawn) [Example 286, 2-(2,6-dioxopiperidin-3-yl)-5-(2-(4-(4-(1-isopropyl-6-((2-(4-methoxypiperidin-1-yl)pyrimidin-4-yl)amino)-1H-imidazo[4,5-c]pyridin-2-yl)benzyl)piperazin-1-yl)ethoxy)isoindoline-1,3-dione] | 0.48 µM | 0.17 µM | 7.3 µM |  |  |
| O=C1CCC(N2C(=O)c3ccc(OCCOCCOCCOCCOCCOCC#Cc4cccc5c4C(=O)N([C@@H](C(=O)Nc4nccs4)c4cc(F)ccc4O)C5)cc3C2=O)C(=O)N1 (stereo partly drawn) [compound 263] | 11 µM | 0.79 µM | 8.6 µM | 12 µM | C (>80% EGFR protein remaining after 72 hours of incubation with the test compound at a concentration of 300 nM) |
| COC1CCN(c2nccc(Nc3cc4c(cn3)nc(COCCOCCN3CCN(CCOc5ccc6c(c5)C(=O)N(C5CCC(=O)NC5=O)C6=O)CC3)n4C(C)C)n2)CC1 (stereo not drawn) [compound 88] | 11 µM | 9.4 µM | > 30 µM | 3.1 µM | C (>80% EGFR protein remaining after 72 hours of incubation with the test compound at a concentration of 300 nM) |
| COC1CCN(c2nccc(Nc3cc4c(cn3)nc(COCCN3CCN(c5ccc6c(c5)C(=O)N(C5CCC(=O)NC5=O)C6=O)CC3)n4C(C)(C)C)n2)CC1 (stereo not drawn) [compound 287] | 0.074 µM | 0.016 µM | 6.7 µM |  |  |
| Cc1ncsc1-c1ccc([C@H](C)NC(=O)[C@H]2C[C@H](O)CN2C(=O)[C@@H](NC(=O)COCCN2CCN(CCCC#Cc3cccc4c3C(=O)N(C(C(=O)Nc3nccs3)c3cc(F)ccc3O)C4)CC2)C(C)(C)C)cc1 (stereo partly drawn) [compound 91] | 4.7 µM | 0.66 µM | 4.3 µM | 8.3 µM | C (>80% EGFR protein remaining after 72 hours of incubation with the test compound at a concentration of 300 nM) |
| O=C1CCC(N2C(=O)c3cccc(NCCOCCOCC#Cc4cccc5c4C(=O)N([C@@H](C(=O)Nc4nccs4)c4cc(F)ccc4O)C5)c3C2=O)C(=O)N1 (stereo partly drawn) [compound 264] | > 30 µM | 1.1 µM | 4.2 µM | 24 µM | C (>80% EGFR protein remaining after 72 hours of incubation with the test compound at a concentration of 300 nM) |
| O=C1CCC(N2C(=O)c3ccc(N4CCN(CC5CCN(CC#Cc6cccc7c6C(=O)N(C(C(=O)Nc6nccs6)c6cc(F)ccc6O)C7)CC5)CC4)cc3C2=O)C(=O)N1 (stereo not drawn) [compound 293] | 4.2 µM | 0.64 µM | 1.7 µM |  |  |
| Cc1ncsc1-c1ccc(CNC(=O)[C@@H]2C[C@@H](O)CN2C(=O)C(C(C)C)N2Cc3ccccc3C2=O)c(OCCOCCOCCOCCOc2ccc(-c3nccc(Nc4cc5c(cn4)nc(C)n5C(C)C)n3)cc2)c1 (stereo partly drawn) [compound 281] | > 30 µM | 15 µM | 12 µM | > 30 µM |  |
| Cc1ncsc1-c1ccc([C@H](C)NC(=O)[C@H]2C[C@H](O)CN2C(=O)[C@@H](NC(=O)COCCOCCOCCOc2ccc(-c3nccc(Nc4cc5c(cn4)nc(C)n5C(C)C)n3)cc2)C(C)(C)C)cc1 [compound 278] | > 30 µM | > 30 µM | 30 µM | > 30 µM |  |
| COC1CCN(c2nccc(Nc3cc4c(cn3)nc(COCCN3CCN(CCOCC(=O)N[C@H](C(=O)N5C[C@H](O)C[C@H]5C(=O)N[C@@H](C)c5ccc(-c6scnc6C)cc5)C(C)(C)C)CC3)n4C(C)C)n2)CC1 [compound 86] | 12 µM | 2.4 µM | > 30 µM | 24 µM | C (>80% EGFR protein remaining after 72 hours of incubation with the test compound at a concentration of 300 nM) |
| O=C1CCC(N2C(=O)c3ccc(N4CCN(CCCC#Cc5cccc6c5C(=O)N(C(C(=O)Nc5nccs5)c5cc(F)ccc5O)C6)CC4)cc3C2=O)C(=O)N1 (stereo not drawn) [compound 96] | 10 µM | 4.6 µM | 1.9 µM | 2.5 µM | C (>80% EGFR protein remaining after 72 hours of incubation with the test compound at a concentration of 300 nM) |
| COC1(CCN2CCN(CCCOCCCOCC(=O)N[C@H](C(=O)N3C[C@H](O)C[C@H]3C(=O)N[C@@H](C)c3ccc(-c4scnc4C)cc3)C(C)(C)C)CC2)CCN(c2nccc(Nc3cc4c(cn3)nc(C)n4C(C)C)n2)CC1 [Example 292, (2S,4R)-4-hydroxy-1-((S)-2-(2-(3-(3-(4-(2-(1-(4-((1-isopropyl-2-methyl-1H-imidazo[4,5-c]pyridin-6-yl)amino)pyrimidin-2-yl)-4-methoxypiperidin-4-yl)ethyl)piperazin-1-yl)propoxy)propoxy)acetamido)-3,3-dimethylbutanoyl)-N—((S)-1-(4-(4-methylthiazol-5-yl)phenyl)ethyl)pyrrolidine-2-carboxamide] | 19 µM | 11 µM | 39 µM |  |  |
| Cc1ncsc1-c1ccc([C@H](C)NC(=O)[C@H]2C[C@H](O)CN2C(=O)[C@@H](NC(=O)COCCCOCCCN2CCOC3(CCN(c4nccc(Nc5cc6c(cn5)nc(C)n6C(C)C)n4)CC3)C2)C(C)(C)C)cc1 [compound 285] | 35 µM | 17 µM | 26 µM |  |  |
| Cc1ncsc1-c1ccc([C@H](C)NC(=O)[C@@H]2C[C@@H](O)CN2C(=O)[C@@H](NC(=O)COCCCOCCCN2CCC3(CC2)CCN(c2nccc(Nc4cc5c(cn4)nc(C)n5C(C)C)n2)CC3)C(C)(C)C)cc1 [Example 282, (2S,4R)-4-hydroxy-1-((S)-2-(2-(3-(3-(9-(4-((1-isopropyl-2-methyl-1H-imidazo[4,5-c]pyridin-6-yl)amino)pyrimidin-2-yl)-3,9-diazaspiro[5.5]undecan-3-yl)propoxy)propoxy)acetamido)-3,3-dimethylbutanoyl)-N—((S)-1-(4-(4-methylthiazol-5-yl)phenyl)ethyl)pyrrolidine-2-carboxamide] | > 30 µM | 23 µM | 12 µM | > 30 µM |  |
| COC1CCN(c2nccc(Nc3cc4[nH]c(COCCN5CCN(c6ccc7c(c6)C(=O)N(C6CCC(=O)NC6=O)C7=O)CC5)nc4cn3)n2)CC1 (stereo not drawn) [compound 288] | 6.9 µM | 2 µM | 5.9 µM |  |  |
| Cc1ncsc1-c1ccc([C@H](C)NC(=O)[C@H]2C[C@H](O)CN2C(=O)[C@@H](NC(=O)COCCOCCOCCOCCOc2ccc(-c3nccc(Nc4cc5c(cn4)nc(C)n5C(C)C)n3)cc2)C(C)(C)C)cc1 [compound 279] | 29 µM | > 30 µM | 16 µM | > 30 µM |  |

Source: patent US10994015B2, “EGFR proteolysis targeting chimeric molecules and associated methods of use” (Arvinas Operations, Inc., priority 2016, dated 2021)
